Test results from patent publication US11058680B2, “Combinations of opioid/TLR4 antagonists and acetaminophen for use in the treatment of emotional pain and insomnia” (Allodynic Threapeutics, LLC, priority 2016, dated 2021).
“And” between values parts separate entries of the source, which are not always exact repeats. Equal entries are not always repeated.

Test system: migraine attacks
Experiment: Naltrexone/acetaminophen open-label pilot study, acute treatment of migraine: headache pain (4-point scale; relief score ≤1, pain-free score = 0), associated symptoms, additional meds
Format: in vivo, human
Method: Sixteen unique patients were enrolled in an open phase pilot study for the acute treatment of migraine attacks, insomnia, and emotional pain. Of the sixteen patients, eleven were evaluated for one migraine attack, one for two attacks, two for four attacks, one for six attacks, and one for fourteen attacks. A total of forty-one […] treatments were evaluated. Patients received a single dose of one of the following treatment options:
The majority of the patients remained in the clinic for observation for 2 hours after dosing. They completed headache diary assessments immediately before and after dosing at time points: 7, 15, and 30 minutes; and 1, 1.5, 2, 3, 6, 12, 24, and 48 hours. Headache pain was assessed on a 4-point scale (0=none; 1=mild; 2=moderate; 3=severe). The assessment of photophobia, phonophobia, nausea, and neck/shoulder pain was assessed as present or absent. The assessment of emotional pain was recorded on a 4-point scale (0=none, 1=mild, 2=moderate, 3=severe). The assessment of difficulty sleeping or falling asleep (insomnia) was assessed on a 4-point scale (0=none, 1=mild, 2=moderate, 3=severe) at baseline, for the night before treatment and for the following nights at 24, and 48 hours. Patients recorded side effects severity at each time point. Patients recorded the time of the first rescue medication dose and all additional headache medications used within 48 hours. Patients were required to stay awake to record their assessments in the first 2 hours, sleeping was permitted thereafter. While asleep, assessments were completed according to patients' best estimation. For data analysis, it was assumed that a migraine attack is a unique patient. Patients were asked to specify (yes or no answer) to whether they experienced emotional pain symptoms such as: hurt feelings, sadness, fear, or anger. Patients who replied positively to having emotional pain were asked to specify the cause into one of the following options: relationship, work/school, money/debt, health, or loss/grief.

[1] = 3 h, NTX/APAP 3.25 mg/325 mg, NTX 3.25 mg
[2] = 3 h, NTX/APAP 5 mg/325 mg, NTX 5 mg
[3] = 3 h, NTX/APAP […]325 mg, NTX 1.5 mg
[4] = 3 h, naltrexone/acetaminophen 2.25 mg/325 mg (N=21), naltrexone 2.25 mg (N=9)
[5] = 4 h, NTX/APAP 2.25 mg/325 mg, NTX 2.25 mg
[6] = 4 h, NTX/APAP 3.25 mg/325 mg, NTX 3.25 mg
[7] = 4 h, NTX/APAP 5 mg/325 mg, NTX 5 mg
[8] = 4 h, NTX/APAP […]325 mg, NTX 1.5 mg
[9] = 4 h, naltrexone/acetaminophen 2.25 mg/325 mg (N=21), naltrexone 2.25 mg (N=9)
[10] = 6 h, NTX/APAP 2.25 mg/325 mg, NTX 2.25 mg
[11] = 6 h, NTX/APAP 3.25 mg/325 mg, NTX 3.25 mg
[12] = 6 h, NTX/APAP 5 mg/325 mg, NTX 5 mg
[13] = 6 h, NTX/APAP […]325 mg, NTX 1.5 mg
[14] = 6 h, naltrexone/acetaminophen 2.25 mg/325 mg (N=21), naltrexone 2.25 mg (N=9)
[15] = 12 h, NTX/APAP 2.25 mg/325 mg, NTX 2.25 mg

Q: `O=C1CC[C@@]2(O)[C@H]3Cc4ccc(O)c5c4[C@@]2(CCN3CC2CC2)[C@H]1O5` [naltrexone] was tested. Which Photophobia-free (3 h, NTX/APAP 2.25 mg/325 mg, NTX 2.25 mg) did it give?
A: 8 (88) n (%)

Q: And the Additional meds taken [1]?
A: 0

Q: And the Headache pain-free [1]?
A: 3 (100) n (%)

Q: And the Headache pain-relief [1]?
A: 3 (100) n (%)

Q: And the “Most bothersome symptom free” value [1]?
A: 3 (100) n (%)

Q: And the Nausea-free [1]?
A: 3 (100) n (%)

Q: And the Neck/shoulder pain-free [1]?
A: 3 (100) n (%)

Q: And the Phonophobia-free [1]?
A: 3 (100) n (%)

Q: And the Photophobia-free [1]?
A: 3 (100) n (%)

Q: What about the Additional meds taken [2] of the same molecule?
A: 0

Q: And the Headache pain-free [2]?
A: 1 (100) n (%)

Q: And the Headache pain-relief [2]?
A: 1 (100) n (%)

Q: And the “Most bothersome symptom free” value [2]?
A: 1 (100) n (%)

Q: What about the Nausea-free [2] of the same molecule?
A: 1 (100) n (%)

Q: What about the Neck/shoulder pain-free [2] of the same molecule?
A: 1 (100) n (%)

Q: And the Phonophobia-free [2]?
A: 1 (100) n (%)

Q: And the Photophobia-free [2]?
A: 1 (100) n (%)

Q: What about the Additional meds taken [3] of the same molecule?
A: 0

Q: What about the Headache pain-free [3] of the same molecule?
A: 3 (100) n (%)

Q: What about the Headache pain-relief [3] of the same molecule?
A: 3 (100) n (%)

Q: What about the “Most bothersome symptom free” value [3] of the same molecule?
A: 3 (100) n (%)

Q: What about the Nausea-free [3] of the same molecule?
A: 3 (100) n (%)

Q: What about the Neck/shoulder pain-free [3] of the same molecule?
A: 3 (100) n (%)

Q: What about the Phonophobia-free [3] of the same molecule?
A: 3 (100) n (%)

Q: What about the Photophobia-free [3] of the same molecule?
A: 3 (100) n (%)

Q: And the Additional meds taken (3 h, combined doses)?
A: 0

Q: What about the Headache pain-free (3 h, combined doses) of the same molecule?
A: 14 (88) n (%)

Q: And the Headache pain-relief (3 h, combined doses)?
A: 16 (100) n (%)

Q: And the “Most bothersome symptom free” value (3 h, combined doses)?
A: 16 (100) n (%)

Q: What about the Nausea-free (3 h, combined doses) of the same molecule?
A: 16 (100) n (%)

Q: What about the Neck/shoulder pain-free (3 h, combined doses) of the same molecule?
A: 16 (100) n (%)

Q: What about the Phonophobia-free (3 h, combined doses) of the same molecule?
A: 16 (100) n (%)

Q: What about the Photophobia-free (3 h, combined doses) of the same molecule?
A: 15 (94) n (%)

Q: What about the Headache pain-free (3 h, naltrexone 1.5 mg (N=3)) of the same molecule?
A: 100%

Q: What about the Headache pain-free [4] of the same molecule?
A: 77% and 100%

Q: What about the Headache pain-relief [4] of the same molecule?
A: 100%

Q: What about the Most bothersome symptom-free [4] of the same molecule?
A: 100%

Q: And the Headache pain-free (3 h, naltrexone/acetaminophen 3.25 mg/325 mg (N=3), naltrexone 3.25 mg (N=3))?
A: 100%

Q: And the Additional meds taken [5]?
A: 0 (0)

Q: What about the Headache pain-free [5] of the same molecule?
A: 6 (66) n (%)

Q: And the Headache pain-relief [5]?
A: 8 (88) n (%)

Q: What about the Most bothersome symptom-free [5] of the same molecule?
A: 8 (88) n (%)

Q: And the Nausea-free [5]?
A: 8 (88) n (%)

Q: What about the Neck/shoulder pain-free [5] of the same molecule?
A: 9 (100) n (%)

Q: What about the Phonophobia-free [5] of the same molecule?
A: 8 (88) n (%)

Q: And the Photophobia-free [5]?
A: 7 (77) n (%)

Q: What about the Additional meds taken [6] of the same molecule?
A: 0

Q: And the Headache pain-free [6]?
A: 3 (100) n (%)

Q: And the Headache pain-relief [6]?
A: 3 (100) n (%)

Q: And the Most bothersome symptom-free [6]?
A: 3 (100) n (%)

Q: What about the Nausea-free [6] of the same molecule?
A: 3 (100) n (%)

Q: What about the Neck/shoulder pain-free [6] of the same molecule?
A: 3 (100) n (%)

Q: And the Phonophobia-free [6]?
A: 3 (100) n (%)

Q: And the Photophobia-free [6]?
A: 3 (100) n (%)

Q: And the Additional meds taken [7]?
A: 0

Q: What about the Headache pain-free [7] of the same molecule?
A: 1 (100) n (%)

Q: And the Headache pain-relief [7]?
A: 1 (100) n (%)

Q: And the Most bothersome symptom-free [7]?
A: 1 (100) n (%)

Q: And the Nausea-free [7]?
A: 1 (100) n (%)

Q: And the Neck/shoulder pain-free [7]?
A: 1 (100) n (%)

Q: What about the Phonophobia-free [7] of the same molecule?
A: 1 (100) n (%)

Q: What about the Photophobia-free [7] of the same molecule?
A: 1 (100) n (%)

Q: And the Additional meds taken [8]?
A: 0

Q: And the Headache pain-free [8]?
A: 3 (100) n (%)

Q: And the Headache pain-relief [8]?
A: 3 (100) n (%)

Q: What about the Most bothersome symptom-free [8] of the same molecule?
A: 3 (100) n (%)

Q: What about the Nausea-free [8] of the same molecule?
A: 3 (100) n (%)

Q: And the Neck/shoulder pain-free [8]?
A: 3 (100) n (%)

Q: And the Phonophobia-free [8]?
A: 3 (100) n (%)

Q: And the Photophobia-free [8]?
A: 3 (100) n (%)

Q: What about the Additional meds taken (4 h, combined doses) of the same molecule?
A: 0

Q: And the Headache pain-free (4 h, combined doses)?
A: 13 (81) n (%)

Q: And the Headache pain-relief (4 h, combined doses)?
A: 15 (94) n (%)

Q: And the Most bothersome symptom-free (4 h, combined doses)?
A: 15 (94) n (%)

Q: What about the Nausea-free (4 h, combined doses) of the same molecule?
A: 15 (94) n (%)

Q: What about the Neck/shoulder pain-free (4 h, combined doses) of the same molecule?
A: 16 (100) n (%)

Q: And the Phonophobia-free (4 h, combined doses)?
A: 15 (94) n (%)

Q: What about the Photophobia-free (4 h, combined doses) of the same molecule?
A: 14 (88) n (%)

Q: And the Headache pain-free (4 h, naltrexone 1.5 mg (N=3))?
A: 100%

Q: What about the Headache pain-free [9] of the same molecule?
A: 66% and 100%

Q: And the Headache pain-relief [9]?
A: 88%

Q: What about the Most bothersome symptom-free [9] of the same molecule?
A: 88%

Q: What about the Headache pain-free (4 h, naltrexone/acetaminophen 3.25 mg/325 mg (N=3), naltrexone 3.25 mg (N=3)) of the same molecule?
A: 100%

Q: And the Additional meds taken [10]?
A: 0 (0)

Q: And the Headache pain-free [10]?
A: 7 (77) n (%)

Q: What about the Headache pain-relief [10] of the same molecule?
A: 9 (100) n (%)

Q: And the Most bothersome symptom-free [10]?
A: 9 (100) n (%)

Q: And the Nausea-free [10]?
A: 9 (100) n (%)

Q: What about the Neck/shoulder pain-free [10] of the same molecule?
A: 9 (100) n (%)

Q: And the Phonophobia-free [10]?
A: 9 (100) n (%)

Q: What about the Photophobia-free [10] of the same molecule?
A: 8 (88) n (%)

Q: And the Additional meds taken [11]?
A: 0

Q: And the Headache pain-free [11]?
A: 3 (100) n (%)

Q: And the Headache pain-relief [11]?
A: 3 (100) n (%)

Q: What about the Most bothersome symptom-free [11] of the same molecule?
A: 3 (100) n (%)

Q: What about the Nausea-free [11] of the same molecule?
A: 3 (100) n (%)

Q: What about the Neck/shoulder pain-free [11] of the same molecule?
A: 3 (100) n (%)

Q: And the Phonophobia-free [11]?
A: 3 (100) n (%)

Q: What about the Photophobia-free [11] of the same molecule?
A: 3 (100) n (%)

Q: What about the Additional meds taken [12] of the same molecule?
A: 0

Q: And the Headache pain-free [12]?
A: 1 (100) n (%)

Q: And the Headache pain-relief [12]?
A: 1 (100) n (%)

Q: What about the Most bothersome symptom-free [12] of the same molecule?
A: 1 (100) n (%)

Q: What about the Nausea-free [12] of the same molecule?
A: 1 (100) n (%)

Q: And the Neck/shoulder pain-free [12]?
A: 1 (100) n (%)

Q: And the Phonophobia-free [12]?
A: 1 (100) n (%)

Q: What about the Photophobia-free [12] of the same molecule?
A: 1 (100) n (%)

Q: What about the Additional meds taken [13] of the same molecule?
A: 0

Q: And the Headache pain-free [13]?
A: 3 (100) n (%)

Q: And the Headache pain-relief [13]?
A: 3 (100) n (%)

Q: And the Most bothersome symptom-free [13]?
A: 3 (100) n (%)

Q: And the Nausea-free [13]?
A: 3 (100) n (%)

Q: And the Neck/shoulder pain-free [13]?
A: 3 (100) n (%)

Q: What about the Phonophobia-free [13] of the same molecule?
A: 3 (100) n (%)

Q: And the Photophobia-free [13]?
A: 3 (100) n (%)

Q: And the Additional meds taken (6 h, combined doses)?
A: 0

Q: And the Headache pain-free (6 h, combined doses)?
A: 14 (88) n (%)

Q: What about the Headache pain-relief (6 h, combined doses) of the same molecule?
A: 16 (100) n (%)

Q: What about the Most bothersome symptom-free (6 h, combined doses) of the same molecule?
A: 16 (100) n (%)

Q: What about the Nausea-free (6 h, combined doses) of the same molecule?
A: 16 (100) n (%)

Q: What about the Neck/shoulder pain-free (6 h, combined doses) of the same molecule?
A: 16 (100) n (%)

Q: What about the Phonophobia-free (6 h, combined doses) of the same molecule?
A: 16 (100) n (%)

Q: What about the Photophobia-free (6 h, combined doses) of the same molecule?
A: 15 (94) n (%)

Q: And the Headache pain-free (6 h, naltrexone 1.5 mg (N=3))?
A: 100%

Q: What about the Headache pain-free [14] of the same molecule?
A: 77% and 100%

Q: And the Headache pain-relief [14]?
A: 100%

Q: What about the Most bothersome symptom-free [14] of the same molecule?
A: 100%

Q: And the Headache pain-free (6 h, naltrexone/acetaminophen 3.25 mg/325 mg (N=3), naltrexone 3.25 mg (N=3))?
A: 100%

Q: And the Additional meds taken [15]?
A: 0 (0)

Q: And the Headache pain-free [15]?
A: 7 (77) n (%)

Q: What about the Headache pain-relief [15] of the same molecule?
A: 9 (100) n (%)

Q: What about the Most bothersome symptom-free [15] of the same molecule?
A: 9 (100) n (%)
